# Experimental data taken from US20130150430A1, “Methods for Impairing the P53/HDM2 Auto-Regulatory Loop in Multiple Myeloma Development Using mIR-192, mIR-194 and mIR-215” (THE OHIO STATE UNIVERSITY, priority 2011, published 2013).
# Test system: miR-192 and miR-194 in WT TP53 MM cell lines
# Assay: qRT-PCR of miRNAs after demethylation agent
# Format: cell-based, human
# Conditions: 10 μM, 3 days, vs DMSO
smiles,measurement,value
Nc1ncn([C@@H]2O[C@H](CO)[C@@H](O)[C@H]2O)c(=O)n1 [Azacytidine],expression of miR-194-2-192 cluster miRNAs,increased
